Test system: MV-4-11 cells
Experiment: Gene expression microarray analysis (Affymetrix PrimeView) and GSEA
Assay type: cell-based, human
Set-up: RFU PODN (11730768_x_at) / Fold change /veh PODN (11730768_x_at) / RFU LINC00158 (11744669_a_at) / Fold change /veh LINC00158 (11744669_a_at) / RFU DUSP10 (11751237_a_at) / Fold change /veh DUSP10 (11751237_a_at) / RFU ID3 (11757404_x_at) / Fold change /veh ID3 (11757404_x_at) / RFU PLEKHG5 (11737974_s_at) / Fold change /veh PLEKHG5 (11737974_s_at) / RFU LRRC4B (11730491_at) / Fold change /veh LRRC4B (11730491_at) / RFU GIMAP4 (11747438_a_at) / Fold change /veh GIMAP4 (11747438_a_at) / RFU KRT8 (11758183_x_at) / Fold change /veh KRT8 (11758183_x_at) / RFU CNN1 (11734310_a_at) / Fold change /veh CNN1 (11734310_a_at) / RFU VPS37D (11726825_at) / Fold change /veh VPS37D (11726825_at) / RFU C10orf10 (11716522_x_at) / Fold change /veh C10orf10 (11716522_x_at) / RFU KIR2DL2 /// KIR2DL4 /// KIR2DL5A /// KIR2DL5B /// KIR2DS1 /// KIR2DS2 /// KIR2DS3 /// KIR2DS4 /// KIR3DL3 /// KIR3DL3 /// KIR3DS1 (11738374_at) / Fold change /veh KIR2DL2 /// KIR2DL4 /// KIR2DL5A /// KIR2DL5B /// KIR2DS1 /// KIR2DS2 /// KIR2DS3 /// KIR2DS4 /// KIR3DL3 /// KIR3DL3 /// KIR3DS1 (11738374_at) / RFU C1QL1 (11718748_at) / Fold change /veh C1QL1 (11718748_at) / RFU TMPRSS4 (11747572_a_at) / Fold change /veh TMPRSS4 (11747572_a_at) / RFU HAMP (11756126_x_at) / Fold change /veh HAMP (11756126_x_at) / RFU RNFT2 (11725882_a_at) / Fold change /veh RNFT2 (11725882_a_at) / RFU NR4A2 (11747474_a_at) / Fold change /veh NR4A2 (11747474_a_at) / RFU ABCC12 (11746883_a_at) / Fold change /veh ABCC12 (11746883_a_at) / RFU TMEM136 (11760407_x_at) / Fold change /veh TMEM136 (11760407_x_at) / RFU CLDN22 /// WWC2 (11732394_at) / Fold change /veh CLDN22 /// WWC2 (11732394_at) / RFU HLA-DPB1 (11760878_x_at) / Fold change /veh HLA-DPB1 (11760878_x_at) / RFU SPINT1 (11716480_a_at) / Fold change /veh SPINT1 (11716480_a_at) / RFU GAP43 (11754022_s_at) / Fold change /veh GAP43 (11754022_s_at) / RFU A4GNT (11735810_at) / Fold change /veh A4GNT (11735810_at) / RFU PRB3 (11715151_x_at) / Fold change /veh PRB3 (11715151_x_at) / RFU TUBB4B (11761932_at) / Fold change /veh TUBB4B (11761932_at) / RFU CAPN14 (11732068_a_at) / Fold change /veh CAPN14 (11732068_a_at) / RFU TMCC2 (11721928_a_at) / Fold change /veh TMCC2 (11721928_a_at) / RFU IRGQ (11745062_a_at) / Fold change /veh IRGQ (11745062_a_at) / RFU FAM174B (11720279_a_at) / Fold change /veh FAM174B (11720279_a_at) / RFU TMPRSS4 (11748680_a_at) / Fold change /veh TMPRSS4 (11748680_a_at) / RFU FAM212B (11763350_a_at) / Fold change /veh FAM212B (11763350_a_at) / RFU PLEKHG5 (11743358_a_at) / Fold change /veh PLEKHG5 (11743358_a_at) / RFU ZSCAN30 (11745921_a_at) / Fold change /veh ZSCAN30 (11745921_a_at) / RFU CMKLR1 (11741424_a_at) / Fold change /veh CMKLR1 (11741424_a_at) / RFU LOC101060620 /// MAPK8IP1 (11723275_at) / Fold change /veh LOC101060620 /// MAPK8IP1 (11723275_at) / RFU SPTSSB (11747773_x_at) / Fold change /veh SPTSSB (11747773_x_at) / RFU PRSS12 (11739890_at) / Fold change /veh PRSS12 (11739890_at) / RFU BIN1 (11741810_x_at) / Fold change /veh BIN1 (11741810_x_at) / RFU WNT11 (11732464_a_at) / Fold change /veh WNT11 (11732464_a_at) / RFU C10orf10 (11716521_a_at) / Fold change /veh C10orf10 (11716521_a_at) / RFU C5orf56 (11738089_at) / Fold change /veh C5orf56 (11738089_at) / RFU CYB561 (11721691_x_at) / Fold change /veh CYB561 (11721691_x_at) / RFU ANKRD19P (11752326_a_at) / Fold change /veh ANKRD19P (11752326_a_at) / RFU OR2T12 /// OR2T33 /// OR2T8 (11738714_s_at) / Fold change /veh OR2T12 /// OR2T33 /// OR2T8 (11738714_s_at) / RFU VCAN (11748164_a_at) / Fold change /veh VCAN (11748164_a_at) / RFU JSRP1 (11732532_at) / Fold change /veh JSRP1 (11732532_at) / RFU KRTAP10-11 (11738290_x_at) / Fold change /veh KRTAP10-11 (11738290_x_at) / RFU MYO3A (11730013_a_at) / Fold change /veh MYO3A (11730013_a_at) / RFU EBF3 (11725865_a_at) / Fold change /veh EBF3 (11725865_a_at) / RFU CAMK2N1 (11719241_x_at) / Fold change /veh CAMK2N1 (11719241_x_at) / RFU C5orf56 (11738088_a_at) / Fold change /veh C5orf56 (11738088_a_at) / RFU OLFML3 (11715873_a_at) / Fold change /veh OLFML3 (11715873_a_at) / RFU LOC100653217 /// NTM (11731650_a_at) / Fold change /veh LOC100653217 /// NTM (11731650_a_at) / RFU MAPK11 (11762145_a_at) / Fold change /veh MAPK11 (11762145_a_at) / RFU FIZ1 (11724087_x_at) / Fold change /veh FIZ1 (11724087_x_at) / RFU OASL (11726364_x_at) / Fold change /veh OASL (11726364_x_at) / RFU SOX15 (11748057_x_at) / Fold change /veh SOX15 (11748057_x_at) / RFU CD79A (11719716_a_at) / Fold change /veh CD79A (11719716_a_at) / RFU HIST1H1D (11736915_at) / Fold change /veh HIST1H1D (11736915_at) / RFU CASKIN2 (11723855_a_at) / Fold change /veh CASKIN2 (11723855_a_at) / RFU LOC730098 (11760151_x_at) / Fold change /veh LOC730098 (11760151_x_at) / RFU OR4N2 (11742367_at) / Fold change /veh OR4N2 (11742367_at) / RFU PRRT2 (11749266_a_at) / Fold change /veh PRRT2 (11749266_a_at) / RFU SNX32 (11753110_a_at) / Fold change /veh SNX32 (11753110_a_at) / RFU CDHR5 (11726645_a_at) / Fold change /veh CDHR5 (11726645_a_at) / RFU RCAN1 (11760418_a_at) / Fold change /veh RCAN1 (11760418_a_at) / RFU FAM167A (11723789_a_at) / Fold change /veh FAM167A (11723789_a_at) / RFU FAM26E (11764081_at) / Fold change /veh FAM26E (11764081_at) / RFU ISYNA1 (11749810_s_at) / Fold change /veh ISYNA1 (11749810_s_at) / RFU ACY1 (11761880_at) / Fold change /veh ACY1 (11761880_at) / RFU 11764098_at / Fold change /veh 11764098_at / RFU SAMD14 (11745864_x_at) / Fold change /veh SAMD14 (11745864_x_at) / RFU NPB (11741838_a_at) / Fold change /veh NPB (11741838_a_at) / RFU TMPRSS6 (11731388_a_at) / Fold change /veh TMPRSS6 (11731388_a_at) / RFU KRTAP10-2 (11738614_at) / Fold change /veh KRTAP10-2 (11738614_at) / RFU ARHGAP8 /// PRR5-ARHGAP8 (11727945_x_at) / Fold change /veh ARHGAP8 /// PRR5-ARHGAP8 (11727945_x_at) / RFU KRTAP5-7 /// NADSYN1 (11734609_at) / Fold change /veh KRTAP5-7 /// NADSYN1 (11734609_at) / RFU RASL12 (11751679_a_at) / Fold change /veh RASL12 (11751679_a_at) / RFU CDKN2B (11736163_a_at) / Fold change /veh CDKN2B (11736163_a_at) / RFU PRF1 (11729649_at) / Fold change /veh PRF1 (11729649_at) / RFU, ZNF638 /// ZNF638-IT1 / Fold change vs veh, ZNF638 /// ZNF638-IT1 / RFU, PANK3 / Fold change vs veh, PANK3 / RFU, SH3YL1 / Fold change vs veh, SH3YL1 / RFU, ZEB2 / Fold change vs veh, ZEB2 / RFU, NRIP1 / Fold change vs veh, NRIP1 / RFU, PTTG1IP / Fold change vs veh, PTTG1IP / RFU, CAPN2 / Fold change vs veh, CAPN2 / RFU, MED14 / Fold change vs veh, MED14 / RFU, SNORA58 / Fold change vs veh, SNORA58 / RFU, C1orf63 / Fold change vs veh, C1orf63 / RFU, LRRFIP1 / Fold change vs veh, LRRFIP1 / RFU, NDUFAF7 / Fold change vs veh, NDUFAF7 / RFU, SLC12A2 / Fold change vs veh, SLC12A2 / RFU, IBTK / Fold change vs veh, IBTK / RFU, ESF1 / Fold change vs veh, ESF1 / Fold change vs veh, TMEM50B / RFU, TAOK1 / Fold change vs veh, TAOK1 / RFU, ACBD3 / Fold change vs veh, ACBD3 / RFU, TMA16 / Fold change vs veh, TMA16 / RFU, RWDD3 / Fold change vs veh, RWDD3 / RFU, BCAT1 / Fold change vs veh, BCAT1 / RFU, EDEM3 / Fold change vs veh, EDEM3 / RFU, TMEM33 / Fold change vs veh, TMEM33 / RFU, WDR75 / Fold change vs veh, WDR75 / RFU, AHCTF1 / Fold change vs veh, AHCTF1 / RFU, TFRC / Fold change vs veh, TFRC / RFU, ZDHHC17 / Fold change vs veh, ZDHHC17 / RFU, NOM1 / Fold change vs veh, NOM1 / RFU, ARL8B / Fold change vs veh, ARL8B / RFU, ZBTB11 / Fold change vs veh, ZBTB11 / RFU, TAMM41 / Fold change vs veh, TAMM41 / RFU, KIAA1704 /// LOC100996395 / Fold change vs veh, KIAA1704 /// LOC100996395 / RFU, ING1 / Fold change vs veh, ING1 / RFU, TRMT61B / Fold change vs veh, TRMT61B / RFU, FUBP3 / Fold change vs veh, FUBP3 / RFU, TP53 / Fold change vs veh, TP53 / RFU, TNKS2 / Fold change vs veh, TNKS2 / RFU, ZFP14 / Fold change vs veh, ZFP14 / RFU, ACTR2 / Fold change vs veh, ACTR2 / RFU, PPP3R1 / Fold change vs veh, PPP3R1 / RFU, PIK3R1 / Fold change vs veh, PIK3R1 / RFU, HNRNPA1 / Fold change vs veh, HNRNPA1 / RFU, RNF170 / Fold change vs veh, RNF170 / RFU, ZNF28 / Fold change vs veh, ZNF28 / RFU, RNGTT / Fold change vs veh, RNGTT / RFU, OGT / Fold change vs veh, OGT / RFU, BRD1 / Fold change vs veh, BRD1 / RFU, MARS / Fold change vs veh, MARS / RFU, ZNF655 / Fold change vs veh, ZNF655 / RFU, FAHD1 / Fold change vs veh, FAHD1 / RFU, BDP1 / Fold change vs veh, BDP1 / RFU, LRRCC1 / Fold change vs veh, LRRCC1 / RFU, ARID1A / Fold change vs veh, ARID1A / RFU, ZNF146 / Fold change vs veh, ZNF146 / RFU, ZNF330 / Fold change vs veh, ZNF330 / RFU, GPN3 / Fold change vs veh, GPN3 / RFU, C9orf123 / Fold change vs veh, C9orf123 / RFU, N4BP2L2 / Fold change vs veh, N4BP2L2 / RFU, ARFIP1 / Fold change vs veh, ARFIP1 / RFU, FAM179B / Fold change vs veh, FAM179B / RFU, BCL10 / Fold change vs veh, BCL10 / RFU, UHRF1BP1L / Fold change vs veh, UHRF1BP1L / RFU, BET1 / Fold change vs veh, BET1 / RFU, CNOT2 / Fold change vs veh, CNOT2 / RFU, ZNF268 / Fold change vs veh, ZNF268 / Fold change vs veh, ZNF507 / RFU, DGCR2 / Fold change vs veh, DGCR2 / RFU, WDSUB1 / Fold change vs veh, WDSUB1 / Fold change vs veh, HSP90B1 /// MIR3652 / RFU, ADSS / Fold change vs veh, ADSS / RFU, GK / Fold change vs veh, GK / RFU, ZNF148 / Fold change vs veh, ZNF148 / RFU, TAF9 / Fold change vs veh, TAF9 / RFU, SLC1A5 / Fold change vs veh, SLC1A5 / RFU, SLMO2 / Fold change vs veh, SLMO2 / RFU, ABCC4 / Fold change vs veh, ABCC4 / RFU, LOC101060439 /// RAP1B / Fold change vs veh, LOC101060439 /// RAP1B / RFU, RFX7 / Fold change vs veh, RFX7 / RFU, GTPBP10 / Fold change vs veh, GTPBP10 / RFU, CNEP1R1 / Fold change vs veh, CNEP1R1 / RFU, BIVM-ERCC5 /// ERCC5 / Fold change vs veh, BIVM-ERCC5 /// ERCC5 / RFU, ILF3 / Fold change vs veh, ILF3 / RFU 11762660_at / Fold change /veh 11762660_at / RFU VCAN (11757783_s_at) / Fold change /veh VCAN (11757783_s_at) / RFU DDX43 (11728927_at) / Fold change /veh DDX43 (11728927_at) / RFU KRT8 (11758188_x_at) / Fold change /veh KRT8 (11758188_x_at) / RFU NKD1 (11759106_at) / Fold change /veh NKD1 (11759106_at) / RFU SRD5A1 (11742802_a_at) / Fold change /veh SRD5A1 (11742802_a_at) / RFU TPSAB1 /// TPSB2 (11721975_s_at) / Fold change /veh TPSAB1 /// TPSB2 (11721975_s_at) / RFU GSTM3 (11746129_a_at) / Fold change /veh GSTM3 (11746129_a_at) / RFU IL23R (11737362_x_at) / Fold change /veh IL23R (11737362_x_at) / RFU TMEM51 (11727254_a_at) / Fold change /veh TMEM51 (11727254_a_at) / RFU PIWIL2 (11732686_x_at) / Fold change /veh PIWIL2 (11732686_x_at) / RFU ORM1 (11744905_x_at) / Fold change /veh ORM1 (11744905_x_at) / RFU CCDC152 (11743942_at) / Fold change /veh CCDC152 (11743942_at) / RFU ECM1 (11717891_a_at) / Fold change /veh ECM1 (11717891_a_at) / RFU IL23R (11748794_a_at) / Fold change /veh IL23R (11748794_a_at) / RFU TNFAIP8L3 (11732012_x_at) / Fold change /veh TNFAIP8L3 (11732012_x_at) / RFU MBOAT4 (11741988_at) / Fold change /veh MBOAT4 (11741988_at) / RFU 11764193_at / Fold change /veh 11764193_at / RFU TMEM53 (11763286_at) / Fold change /veh TMEM53 (11763286_at) / RFU MAGEB2 (11727129_at) / Fold change /veh MAGEB2 (11727129_at) / RFU TMEM200A (11744735_a_at) / Fold change /veh TMEM200A (11744735_a_at) / RFU CCDC152 (11751479_a_at) / Fold change /veh CCDC152 (11751479_a_at) / RFU FAM211A (11726209_a_at) / Fold change /veh FAM211A (11726209_a_at) / RFU RGS16 (11746705_a_at) / Fold change /veh RGS16 (11746705_a_at) / RFU VCAN (11755009_s_at) / Fold change /veh VCAN (11755009_s_at) / RFU RHOB (11743442_s_at) / Fold change /veh RHOB (11743442_s_at) / RFU RGS16 (11720943_a_at) / Fold change /veh RGS16 (11720943_a_at) / RFU RGS16 (11720944_at) / Fold change /veh RGS16 (11720944_at) / RFU, VPS4B / Fold change vs veh, VPS4B / RFU, CREB1 / Fold change vs veh, CREB1 / RFU, DNAJC13 / Fold change vs veh, DNAJC13 / RFU, GNAQ / Fold change vs veh, GNAQ / RFU, CDK5R1 / Fold change vs veh, CDK5R1 / RFU, ZRANB3 / Fold change vs veh, ZRANB3 / RFU, CUL4A / Fold change vs veh, CUL4A / RFU, CCNY / Fold change vs veh, CCNY / RFU, UFL1 / Fold change vs veh, UFL1 / RFU, COG3 / Fold change vs veh, COG3 / RFU, DIAPH2 / Fold change vs veh, DIAPH2 / RFU, SKA2 / Fold change vs veh, SKA2 / RFU, AFF3 / Fold change vs veh, AFF3 / RFU, LMF1 / Fold change vs veh, LMF1 / RFU, IPO11 / Fold change vs veh, IPO11 / RFU, DFFB / Fold change vs veh, DFFB / RFU, FOXP1 / Fold change vs veh, FOXP1 / RFU, CARD8 / Fold change vs veh, CARD8 / RFU, STRN3 / Fold change vs veh, STRN3 / RFU, ADK / Fold change vs veh, ADK / RFU, RASSF2 / Fold change vs veh, RASSF2 / RFU, WIPF1 / Fold change vs veh, WIPF1 / RFU, LARP1B / Fold change vs veh, LARP1B / RFU, RASA1 / Fold change vs veh, RASA1 / RFU, RB1 / Fold change vs veh, RB1 / RFU, PPFIA1 / Fold change vs veh, PPFIA1 / RFU, MAT2A / Fold change vs veh, MAT2A / RFU, CCT5 / Fold change vs veh, CCT5 / RFU, WDR92 / Fold change vs veh, WDR92 / RFU, CUX1 / Fold change vs veh, CUX1 / RFU, TTC7A / Fold change vs veh, TTC7A / RFU, TMEM135 / Fold change vs veh, TMEM135 / RFU, DEPTOR / Fold change vs veh, DEPTOR / RFU, CPM / Fold change vs veh, CPM / RFU, DNAJB6 / Fold change vs veh, DNAJB6 / RFU, CACNA2D3 / Fold change vs veh, CACNA2D3 / RFU, DTX4 / Fold change vs veh, DTX4 / RFU, TFCP2 / Fold change vs veh, TFCP2 / RFU, GMCL1 /// GMCL1P1 / Fold change vs veh, GMCL1 /// GMCL1P1 / RFU, AEBP2 / Fold change vs veh, AEBP2 / RFU, SNHG1 /// SNORD22 /// SNORD25 /// SNORD26 /// SNORD27 /// SNORD28 /// SNORD29 /// SNORD31 / Fold change vs veh, SNHG1 /// SNORD22 /// SNORD25 /// SNORD26 /// SNORD27 /// SNORD28 /// SNORD29 /// SNORD31 / Fold change (Aza/veh), C12orf56 (ProbeSet 11735607_a_at) / Fold change (ACY-1035/veh), C12orf56 (ProbeSet 11735607_a_at) / Fold change (Aza/veh), FGFR1OP (ProbeSet 11751329_s_at) / Fold change (ACY-1035/veh), FGFR1OP (ProbeSet 11751329_s_at) / Fold change (Aza/veh), VPS36 (ProbeSet 11739960_a_at) / Fold change (ACY-1035/veh), VPS36 (ProbeSet 11739960_a_at) / RFU SYPL1 (11715823_x_at) / Fold change /veh SYPL1 (11715823_x_at) / RFU IGFBP7 (11715501_s_at) / Fold change /veh IGFBP7 (11715501_s_at) / RFU REEP3 (11722064_at) / Fold change /veh REEP3 (11722064_at) / RFU IGLL1 (11728026_x_at) / Fold change /veh IGLL1 (11728026_x_at): dose or concentration left out as unconfirmed
Conditions: ProbeSet 11725100_s_at; LIST B

For `Nc1ccc(-c2cccs2)cc1NC(=O)c1ccc2c(c1)cc(C1CC1)n2CCN1CCOCC1` [ACY-1035], the “RFU, ESF1” value was 97.73 RFU.

Source: article PMC5218480 (PLoS ONE, 2017)
